#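 Method: 48-hour compound exposure of cells in 96-well plates, five concentrations, linear interpolation of endpoints. GI50 is the concentration that inhibits growth by half. TGI marks complete inhibition of growth.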
# Experiments:
# Assay in all cases: NCI anticancer screen, dose series, 48 h
# EKVX NSCLC = system: EKVX NSCLC
# DU-145 prostate = system: DU-145 prostate
# MALME-3M melanoma = system: MALME-3M melanoma
# TK-10 renal = system: TK-10 renal
# NCI-H522 lung = system: NCI-H522 lung
# HT29 colon = system: HT29 colon
# UACC-257 melanoma = system: UACC-257 melanoma
# RPMI-8226 leukemia = system: RPMI-8226 leukemia
# ACHN renal = system: ACHN renal
# SNB-75 CNS = system: SNB-75 CNS
# LOX IMVI melanoma = system: LOX IMVI melanoma
# HCT-15 colon = system: HCT-15 colon
# MOLT-4 leukemia = system: MOLT-4 leukemia
# SK-OV-3 ovarian = system: SK-OV-3 ovarian
# UO-31 renal = system: UO-31 renal
# SR leukemia = system: SR leukemia
# HOP-92 NSCLC = system: HOP-92 NSCLC
# KM12 colon = system: KM12 colon
# OVCAR-3 ovarian = system: OVCAR-3 ovarian
# SK-MEL-2 melanoma = system: SK-MEL-2 melanoma
# COLO 205 colon = system: COLO 205 colon
# SF-539 CNS = system: SF-539 CNS
# SNB-19 CNS = system: SNB-19 CNS
# CAKI-1 renal = system: CAKI-1 renal
# HS 578T breast = system: HS 578T breast
# A498 renal = system: A498 renal
# MDA-MB-435 = system: MDA-MB-435
# HCT-116 colon = system: HCT-116 colon
# BT-549 breast = system: BT-549 breast
# K-562 leukemia = system: K-562 leukemia
# MCF7 breast = system: MCF7 breast
# IGROV1 ovarian = system: IGROV1 ovarian
# HOP-62 NSCLC = system: HOP-62 NSCLC
# OVCAR-8 ovarian = system: OVCAR-8 ovarian
# NCI-H23 lung = system: NCI-H23 lung
# M14 melanoma = system: M14 melanoma
# MDA-MB-231 breast = system: MDA-MB-231 breast
# NCI-H460 lung = system: NCI-H460 lung
# SN12C renal = system: SN12C renal
# RXF 393 renal = system: RXF 393 renal
# HL-60(TB) leukemia = system: HL-60(TB) leukemia
# 786-0 renal = system: 786-0 renal
# NCI-H226 lung = system: NCI-H226 lung
# UACC-62 melanoma = system: UACC-62 melanoma
# SK-MEL-5 melanoma = system: SK-MEL-5 melanoma
# SK-MEL-28 melanoma = system: SK-MEL-28 melanoma
# SF-295 CNS = system: SF-295 CNS
# HCC-2998 colon = system: HCC-2998 colon
# OVCAR-5 ovarian = system: OVCAR-5 ovarian
# SW-620 colon = system: SW-620 colon
# A549 NSCLC = system: A549 NSCLC
# OVCAR-4 ovarian = system: OVCAR-4 ovarian
# PC-3 prostate = system: PC-3 prostate
# NCI/ADR-RES ovarian = system: NCI/ADR-RES ovarian
# U251 CNS = system: U251 CNS
# T-47D breast = system: T-47D breast
# CCRF-CEM leukemia = system: CCRF-CEM leukemia
# SF-268 CNS = system: SF-268 CNS
compound,measurement,setting,value
COc1cccc(/C=N\NC(=O)c2ccncc2)c1O,GI50,EKVX NSCLC,6.78 µM
same,TGI,EKVX NSCLC,> 100 µM
same,GI50,DU-145 prostate,5.13 µM
same,TGI,DU-145 prostate,> 100 µM
same,GI50,MALME-3M melanoma,6.62 µM
same,TGI,MALME-3M melanoma,88.3 µM
same,GI50,TK-10 renal,4.78 µM
same,TGI,TK-10 renal,> 100 µM
same,GI50,NCI-H522 lung,3.24 µM
same,TGI,NCI-H522 lung,> 100 µM
same,GI50,HT29 colon,21.5 µM
same,TGI,HT29 colon,> 100 µM
same,GI50,UACC-257 melanoma,5 µM
same,TGI,UACC-257 melanoma,> 100 µM
same,GI50,RPMI-8226 leukemia,5.48 µM
same,TGI,RPMI-8226 leukemia,> 100 µM
same,GI50,ACHN renal,2.96 µM
same,TGI,ACHN renal,> 100 µM
same,GI50,SNB-75 CNS,47.6 µM
same,TGI,SNB-75 CNS,> 100 µM
same,GI50,LOX IMVI melanoma,2.2 µM
same,TGI,LOX IMVI melanoma,> 100 µM
same,GI50,HCT-15 colon,2.87 µM
same,TGI,HCT-15 colon,> 100 µM
same,GI50,MOLT-4 leukemia,3.04 µM
same,TGI,MOLT-4 leukemia,> 100 µM
same,GI50,SK-OV-3 ovarian,6.45 µM
same,TGI,SK-OV-3 ovarian,> 100 µM
same,GI50,UO-31 renal,2.36 µM
same,TGI,UO-31 renal,56.8 µM
same,GI50,SR leukemia,2.98 µM
same,TGI,SR leukemia,> 100 µM
same,GI50,HOP-92 NSCLC,3.16 µM
same,TGI,HOP-92 NSCLC,> 100 µM
same,GI50,KM12 colon,6.06 µM
same,TGI,KM12 colon,> 100 µM
same,GI50,OVCAR-3 ovarian,4.61 µM
same,TGI,OVCAR-3 ovarian,> 100 µM
same,GI50,SK-MEL-2 melanoma,53.2 µM
same,TGI,SK-MEL-2 melanoma,> 100 µM
same,GI50,COLO 205 colon,4.9 µM
same,TGI,COLO 205 colon,> 100 µM
same,GI50,SF-539 CNS,6.07 µM
same,TGI,SF-539 CNS,> 100 µM
same,GI50,SNB-19 CNS,6.72 µM
same,TGI,SNB-19 CNS,> 100 µM
same,GI50,CAKI-1 renal,1.88 µM
same,TGI,CAKI-1 renal,17.6 µM
same,GI50,HS 578T breast,> 100 µM
same,TGI,HS 578T breast,> 100 µM
same,GI50,A498 renal,51.1 µM
same,TGI,A498 renal,> 100 µM
same,GI50,MDA-MB-435,19.2 µM
same,TGI,MDA-MB-435,> 100 µM
same,GI50,HCT-116 colon,3.47 µM
same,TGI,HCT-116 colon,> 100 µM
same,GI50,BT-549 breast,4.48 µM
same,TGI,BT-549 breast,68.3 µM
same,GI50,K-562 leukemia,13.7 µM
same,TGI,K-562 leukemia,> 100 µM
same,GI50,MCF7 breast,6.27 µM
same,TGI,MCF7 breast,> 100 µM
same,GI50,IGROV1 ovarian,6.98 µM
same,TGI,IGROV1 ovarian,> 100 µM
same,GI50,HOP-62 NSCLC,5.36 µM
same,TGI,HOP-62 NSCLC,> 100 µM
same,GI50,OVCAR-8 ovarian,4.54 µM
same,TGI,OVCAR-8 ovarian,> 100 µM
same,GI50,NCI-H23 lung,5.28 µM
same,TGI,NCI-H23 lung,> 100 µM
same,GI50,M14 melanoma,4.68 µM
same,TGI,M14 melanoma,> 100 µM
same,GI50,MDA-MB-231 breast,7.61 µM
same,TGI,MDA-MB-231 breast,> 100 µM
same,GI50,NCI-H460 lung,3.63 µM
same,TGI,NCI-H460 lung,> 100 µM
same,GI50,SN12C renal,8.41 µM
same,TGI,SN12C renal,> 100 µM
same,GI50,RXF 393 renal,5.49 µM
same,TGI,RXF 393 renal,> 100 µM
same,GI50,HL-60(TB) leukemia,2.27 µM
same,TGI,HL-60(TB) leukemia,8.73 µM
same,GI50,786-0 renal,3.53 µM
same,TGI,786-0 renal,30.6 µM
same,GI50,NCI-H226 lung,10.4 µM
same,TGI,NCI-H226 lung,> 100 µM
same,GI50,UACC-62 melanoma,3.62 µM
same,TGI,UACC-62 melanoma,34.6 µM
same,GI50,SK-MEL-5 melanoma,6.29 µM
same,TGI,SK-MEL-5 melanoma,29 µM
same,GI50,SK-MEL-28 melanoma,19.1 µM
same,TGI,SK-MEL-28 melanoma,> 100 µM
same,GI50,SF-295 CNS,3.35 µM
same,TGI,SF-295 CNS,71.2 µM
same,GI50,HCC-2998 colon,4.73 µM
same,TGI,HCC-2998 colon,> 100 µM
same,GI50,OVCAR-5 ovarian,12.9 µM
same,TGI,OVCAR-5 ovarian,> 100 µM
same,GI50,SW-620 colon,7.48 µM
same,TGI,SW-620 colon,> 100 µM
same,GI50,A549 NSCLC,11 µM
same,TGI,A549 NSCLC,> 100 µM
same,GI50,OVCAR-4 ovarian,2.43 µM
same,TGI,OVCAR-4 ovarian,> 100 µM
same,GI50,PC-3 prostate,8.01 µM
same,TGI,PC-3 prostate,> 100 µM
same,GI50,NCI/ADR-RES ovarian,2.84 µM
same,TGI,NCI/ADR-RES ovarian,> 100 µM
same,GI50,U251 CNS,2.95 µM
same,TGI,U251 CNS,> 100 µM
same,GI50,T-47D breast,3.46 µM
same,TGI,T-47D breast,> 100 µM
same,GI50,CCRF-CEM leukemia,1.86 µM
same,TGI,CCRF-CEM leukemia,> 100 µM
same,GI50,SF-268 CNS,3.47 µM
same,TGI,SF-268 CNS,> 100 µM

# From PubChem BioAssay (NCI)
